Assay results as given in PMC9917099, “The Mycotoxin Patulin Inhibits the Mitochondrial Carnitine/Acylcarnitine Carrier (SLC25A20) by Interaction with Cys136 Implications for Human Health” (International Journal of Molecular Sciences, 2023).

Key:
[1] = Stability of PAT solution stored at room temperature, read out as inhibition of recombinant WT CAC transport; assay type: physicochemical; conditions: 25 and 50 µM PAT, stored at r.t., 24 and 72 h
Source text: Figure 3A reports the interaction of PAT with the reconstituted WT protein. The inhibition observed after the pretreatment of proteoliposomes with the mycotoxin was not reversed by DTE, confirming the formation of an irreversible covalent bond between CAC and PAT also with the purified recombinant protein (see above Figure 1B). For evaluating the stability of the drug following prolonged storage, we measured the inhibition of the transport activity of WT adding to the samples, at various time, the same PAT solution stored at room temperature (r.t.).
Figure 3 (A) Reversal of PAT inhibition on recombinant protein by DTE. The carnitine homo-exchange transport activity was measured, as described in Materials and Methods, adding 0.1 mM [^3H] carnitine to proteoliposomes reconstituted with the recombinant WT CAC containing 15 mM internal carnitine in the absence or presence of 50 μM PAT, added 30 min before the labelled substrate. 5 mM dithioerythritol (DTE) was added 1 min before the transport assay in a control and PAT treated aliquot, respectively. […] Proteoliposomes reconstituted with the WT CAC were incubated by the same PAT solution (25 and 50 µM) after 0.5 h, 24 h and 72 h (white, grey and black bars, respectively) and then the transport activity was measured by adding 0.1 mM [^3H]-carnitine and stopped after 30 min as described in Materials and Methods.

[2] = molecular target: T1, CAC in intact rat liver mitochondria (Rattus norvegicus, UniProt P97521); experiment: Treatment of intact rat liver mitochondria, then solubilization, reconstitution in proteoliposomes and carnitine antiport assay; assay type: biochemical
T1 construct: the native protein extracted from rat liver mitochondria; from tissue; host or cells: rat liver mitochondria (Triton X-100 extract)
T1 sequence (P97521 1-301): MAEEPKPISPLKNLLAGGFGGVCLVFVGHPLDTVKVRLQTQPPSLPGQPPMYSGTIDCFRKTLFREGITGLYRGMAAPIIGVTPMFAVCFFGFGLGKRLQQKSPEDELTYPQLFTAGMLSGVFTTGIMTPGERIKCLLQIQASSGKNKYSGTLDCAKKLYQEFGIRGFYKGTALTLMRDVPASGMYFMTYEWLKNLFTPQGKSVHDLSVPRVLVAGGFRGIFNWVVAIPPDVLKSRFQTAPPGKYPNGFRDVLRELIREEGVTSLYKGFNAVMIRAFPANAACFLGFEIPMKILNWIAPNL
Method: Figure 1 Effect of Patulin on the native carnitine/acylcarnitine carrier (CAC). (A) Dose-response analysis of proteoliposomes reconstituted with the CAC extracted from rat liver mitochondria (0.3 mg of total proteins) and incubated with PAT at the indicated concentrations for 30 min, before measuring the transport activity by adding 0.1 mM [^3H] carnitine for 10 min as described in Materials and Methods. The percentage of residual activity compared to control, without PAT treatment, is reported. The values are the means ± SD from three independent experiments. (B) Rat liver mitochondria (5 mg/100 μL) were incubated or not (control) for 60 min, with Patulin (60 μM) or GSH (5 mM) as indicated. Upon treatment, the unreacted drug was removed by washing the mitochondria in PBS 1X and then 0.3 mg mitochondria were solubilized by 3% TX-100, 10 mM PIPES pH 7.0 and reconstituted in proteoliposomes for transport assay as indicated in (A) and Materials and Methods. Black and white bars indicate without or with the addition of 5 mM dithioerythritol (DTE) 1 min before the transport assay to aliquots of each sample.
The effect of PAT on the CAC at 60 µM concentration was also detected in intact rat liver mitochondria. Upon treatment (60 min), the mitochondria were solubilized in Triton X-100 and 0.3 mg of mitochondrial extract were reconstituted in proteoliposomes for testing the transport activity of CAC (see above). […] Aliquots of intact mitochondria incubated with PAT were treated also with reduced GSH to verify whether this physiological SH-reducing agent was able to reverse the mycotoxin-protein interactions.
The recombinant CAC proteins were reconstituted in proteoliposomes as previously described. Rat liver mitochondria after purification, using the standard procedure of cell disruption and differential centrifugation were solubilized with 3% Triton X-100 in a PIPES buffer (10 mM) at pH 7.0. Herein, the mitochondrial extract (0.3 mg) were reconstituted in the liposomes as above described for the mitochondrial CAC recombinant protein, in the absence of reducing agents. The concentration of intraliposomal carnitine was 15 mM in all samples.
For the transport assay, 550 μL of proteoliposomes were passed through a Sephadex G-75 column in order to remove the external substrate. Six hundred μL of the turbid eluate were collected, divided into samples of 100 μL each, and used for transport measurement by the inhibitor-stop method. Transport was started as homoexchange by adding 0.1 mM [^3H]-carnitine to proteoliposomes containing 15 mM carnitine and, at the indicated time interval, stopped by 1.5 mM NEM (N-ethylmaleimide). The inhibitor was added together with the labelled substrate at time zero in the control samples. After finishing the transport reaction, the external radiolabel substrate was removed by gel filtration chromatography (Sephadex G-75), and the intraliposomal radioactivity was measured by liquid scintillation. Transport was measured at 25 °C. The experimental values were corrected by subtracting the controls. Transport rates were measured in 10 min, i.e., within the initial linear range of the time course.

O=C1C=C2C(=CCOC2O)O1 (stereo not drawn) [PAT, 4-hydroxy-4H-furo [3,2c] pyran-2 [6H] -one]
reactivity towards CAC of stored PAT solution [1]: does not change
inhibition at 60 µM ([2]; 60 µM PAT, 60 min, intact rat liver mitochondria, read-out: inhibition of CAC transport activity compared to control): ~50%
recovery of transport activity on addition of GSH after PAT treatment ([2]; 60 µM PAT, then 5 mM GSH): did not lead to a recovery
reversal of PAT binding by DTE ([2]; 5 mM DTE added 1 min before transport assay): No reverse binding
effect of GSH added to mitochondria before PAT incubation on PAT inhibition ([2]; 5 mM GSH before 60 µM PAT): prevented
IC50 ([2]; intact rat mitochondria): 60 µM
